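Exposure lasted 48 hours, with cells grown in 96-well plates and compounds tested at five concentrations. TGI is the concentration that stops growth completely.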
What was measured:
Assay in all cases: growth of human tumour cells (NCI), 48 h
OVCAR-8 ovarian = tested on: OVCAR-8 ovarian
DU-145 prostate = tested on: DU-145 prostate
RXF 393 renal = tested on: RXF 393 renal
CAKI-1 renal = tested on: CAKI-1 renal
SK-MEL-2 melanoma = tested on: SK-MEL-2 melanoma
SW-620 colon = tested on: SW-620 colon
PC-3 prostate = tested on: PC-3 prostate
NCI-H226 lung = tested on: NCI-H226 lung
OVCAR-5 ovarian = tested on: OVCAR-5 ovarian
SK-MEL-5 melanoma = tested on: SK-MEL-5 melanoma
EKVX NSCLC = tested on: EKVX NSCLC
ACHN renal = tested on: ACHN renal
SF-295 CNS = tested on: SF-295 CNS
RPMI-8226 leukemia = tested on: RPMI-8226 leukemia

Which TGI (OVCAR-8 ovarian) does the source give for N/C(=N\Nc1cccc(Cl)c1)c1cccnc1 here?
Its TGI is over 100 µM.

What about the TGI (DU-145 prostate) of the same compound?
Its TGI is over 100 µM.

What about the TGI (RXF 393 renal) of the same compound?
The TGI was over 80.3 µM.

What about the TGI (CAKI-1 renal) of the same compound?
Its TGI is over 100 µM.

What about the TGI (SK-MEL-2 melanoma) of the same compound?
The TGI was over 100 µM.

What about the TGI (SW-620 colon) of the same compound?
Its TGI is over 100 µM.

What about the TGI (PC-3 prostate) of the same compound?
Its TGI is over 100 µM.

What about the TGI (NCI-H226 lung) of the same compound?
Its TGI is over 100 µM.

And the TGI (OVCAR-5 ovarian)?
Its TGI is over 100 µM.

What about the TGI (SK-MEL-5 melanoma) of the same compound?
Its TGI is over 88 µM.

And the TGI (EKVX NSCLC)?
Its TGI is over 100 µM.

And the TGI (ACHN renal)?
Its TGI is over 100 µM.

And the TGI (SF-295 CNS)?
The TGI was over 100 µM.

And the TGI (RPMI-8226 leukemia)?
Its TGI is over 89.9 µM.

Which TGI (OVCAR-8 ovarian) does the source give for O=C1c2scc(-c3ccc(F)cc3)c2-n2cccc21 here?
Its TGI is over 100 µM.

And the TGI (DU-145 prostate)?
The TGI was over 100 µM.

And the TGI (RXF 393 renal)?
The TGI was over 100 µM.

And the TGI (CAKI-1 renal)?
Its TGI is over 100 µM.

And the TGI (SK-MEL-2 melanoma)?
The TGI was over 100 µM.

What about the TGI (SW-620 colon) of the same compound?
The TGI was over 100 µM.

And the TGI (PC-3 prostate)?
The TGI was over 100 µM.

What about the TGI (NCI-H226 lung) of the same compound?
Its TGI is over 100 µM.

And the TGI (OVCAR-5 ovarian)?
The TGI was over 100 µM.

What about the TGI (SK-MEL-5 melanoma) of the same compound?
The TGI was over 100 µM.

And the TGI (EKVX NSCLC)?
Its TGI is over 100 µM.

And the TGI (ACHN renal)?
Its TGI is over 100 µM.

And the TGI (SF-295 CNS)?
The TGI was over 100 µM.

What about the TGI (RPMI-8226 leukemia) of the same compound?
The TGI was over 100 µM.

For [N-]=[N+]=NC1(c2ccccc2)C(=O)c2cccc3c4ccccc4n(c23)C1=O (stereo unspecified), which TGI (OVCAR-8 ovarian) is on record?
Its TGI is over 100 µM.

What about the TGI (DU-145 prostate) of the same compound?
Its TGI is over 100 µM.

What about the TGI (RXF 393 renal) of the same compound?
Its TGI is over 100 µM.

And the TGI (CAKI-1 renal)?
Its TGI is over 100 µM.

And the TGI (SK-MEL-2 melanoma)?
Its TGI is over 100 µM.

And the TGI (SW-620 colon)?
Its TGI is over 100 µM.

And the TGI (PC-3 prostate)?
Its TGI is over 100 µM.

And the TGI (NCI-H226 lung)?
Its TGI is over 100 µM.

What about the TGI (OVCAR-5 ovarian) of the same compound?
The TGI was over 100 µM.

And the TGI (SK-MEL-5 melanoma)?
Its TGI is over 100 µM.

What about the TGI (EKVX NSCLC) of the same compound?
Its TGI is over 100 µM.

What about the TGI (ACHN renal) of the same compound?
The TGI was over 100 µM.

And the TGI (SF-295 CNS)?
The TGI was over 100 µM.

What about the TGI (RPMI-8226 leukemia) of the same compound?
Its TGI is over 100 µM.

How did the TGI (OVCAR-8 ovarian) turn out when N#Cc1c(Cl)cccc1Oc1ccc(S(=O)(=O)/N=C(\NO)Nc2ccc(Cl)cc2)cc1 was run?
The TGI was 43.5 µM.

What about the TGI (DU-145 prostate) of the same compound?
Its TGI is 32.9 µM.

What about the TGI (RXF 393 renal) of the same compound?
Its TGI is 32.2 µM.

What about the TGI (CAKI-1 renal) of the same compound?
The TGI was 29.2 µM.

And the TGI (SK-MEL-2 melanoma)?
Its TGI is 38.5 µM.

What about the TGI (SW-620 colon) of the same compound?
The TGI was 34.8 µM.

And the TGI (PC-3 prostate)?
The TGI was 30.6 µM.

What about the TGI (NCI-H226 lung) of the same compound?
The TGI was 48 µM.

And the TGI (OVCAR-5 ovarian)?
Its TGI is 34.9 µM.

And the TGI (SK-MEL-5 melanoma)?
The TGI was 31 µM.

And the TGI (EKVX NSCLC)?
The TGI was 29 µM.

And the TGI (ACHN renal)?
Its TGI is 29.1 µM.

What about the TGI (SF-295 CNS) of the same compound?
The TGI was 32.3 µM.

What about the TGI (RPMI-8226 leukemia) of the same compound?
The TGI was 71.2 µM.

For COc1ccc(/C=C/C(=N/NC(=O)N/N=C(/C=C/c2ccc(OC)cc2)C(C)C)C(C)C)cc1, which TGI (OVCAR-8 ovarian) is on record?
The TGI was over 100 µM.

And the TGI (DU-145 prostate)?
Its TGI is over 100 µM.

And the TGI (RXF 393 renal)?
The TGI was over 100 µM.

What about the TGI (CAKI-1 renal) of the same compound?
The TGI was over 100 µM.

And the TGI (SK-MEL-2 melanoma)?
The TGI was over 100 µM.

What about the TGI (SW-620 colon) of the same compound?
Its TGI is over 100 µM.

And the TGI (PC-3 prostate)?
Its TGI is over 100 µM.

What about the TGI (NCI-H226 lung) of the same compound?
The TGI was over 100 µM.

And the TGI (OVCAR-5 ovarian)?
Its TGI is over 100 µM.

And the TGI (SK-MEL-5 melanoma)?
Its TGI is over 100 µM.

What about the TGI (EKVX NSCLC) of the same compound?
The TGI was over 100 µM.

And the TGI (ACHN renal)?
Its TGI is over 100 µM.

What about the TGI (SF-295 CNS) of the same compound?
The TGI was over 100 µM.

What about the TGI (RPMI-8226 leukemia) of the same compound?
Its TGI is over 100 µM.

Which TGI (OVCAR-8 ovarian) does the source give for COC(=O)C1=C(C(=O)OC)C2(c3ccccc3)c3ccccc3C(=O)C1N2C1CCCCC1 (stereo unspecified) here?
The TGI was over 100 µM.

What about the TGI (DU-145 prostate) of the same compound?
Its TGI is over 100 µM.

And the TGI (RXF 393 renal)?
Its TGI is over 89 µM.

What about the TGI (CAKI-1 renal) of the same compound?
The TGI was over 100 µM.

What about the TGI (SK-MEL-2 melanoma) of the same compound?
The TGI was over 100 µM.

And the TGI (SW-620 colon)?
Its TGI is over 100 µM.

What about the TGI (PC-3 prostate) of the same compound?
Its TGI is over 100 µM.

What about the TGI (NCI-H226 lung) of the same compound?
The TGI was over 100 µM.

What about the TGI (OVCAR-5 ovarian) of the same compound?
Its TGI is over 100 µM.

And the TGI (SK-MEL-5 melanoma)?
Its TGI is over 100 µM.

And the TGI (EKVX NSCLC)?
The TGI was over 100 µM.

And the TGI (ACHN renal)?
The TGI was over 100 µM.

And the TGI (SF-295 CNS)?
The TGI was over 100 µM.

And the TGI (RPMI-8226 leukemia)?
The TGI was 40.6 µM.

For O=C1CSC2(CC(/C=C/c3cccc(Br)c3)=NN2c2cccc(S(=O)(=O)O)c2)N1c1nc2ccccc2s1 (stereo unspecified), which TGI (OVCAR-8 ovarian) is on record?
The TGI was over 100 µM.

What about the TGI (DU-145 prostate) of the same compound?
The TGI was over 100 µM.

What about the TGI (RXF 393 renal) of the same compound?
The TGI was over 100 µM.

And the TGI (CAKI-1 renal)?
Its TGI is over 100 µM.

What about the TGI (SK-MEL-2 melanoma) of the same compound?
The TGI was over 100 µM.

What about the TGI (SW-620 colon) of the same compound?
The TGI was over 100 µM.

What about the TGI (PC-3 prostate) of the same compound?
The TGI was over 100 µM.

What about the TGI (NCI-H226 lung) of the same compound?
The TGI was over 100 µM.

And the TGI (OVCAR-5 ovarian)?
The TGI was over 100 µM.

And the TGI (SK-MEL-5 melanoma)?
Its TGI is over 100 µM.

And the TGI (EKVX NSCLC)?
The TGI was over 100 µM.

What about the TGI (ACHN renal) of the same compound?
Its TGI is over 100 µM.

And the TGI (SF-295 CNS)?
The TGI was over 100 µM.

What about the TGI (RPMI-8226 leukemia) of the same compound?
Its TGI is over 100 µM.

How did the TGI (OVCAR-8 ovarian) turn out when COc1nc(N)nc2c1n(C)c[n+]2C was run?
The TGI was over 100 µM.

And the TGI (DU-145 prostate)?
Its TGI is over 100 µM.

And the TGI (RXF 393 renal)?
The TGI was over 100 µM.

What about the TGI (CAKI-1 renal) of the same compound?
Its TGI is over 100 µM.

What about the TGI (SK-MEL-2 melanoma) of the same compound?
The TGI was over 100 µM.

And the TGI (SW-620 colon)?
Its TGI is over 100 µM.

And the TGI (PC-3 prostate)?
Its TGI is over 100 µM.

And the TGI (NCI-H226 lung)?
Its TGI is over 100 µM.

What about the TGI (OVCAR-5 ovarian) of the same compound?
Its TGI is over 100 µM.

And the TGI (SK-MEL-5 melanoma)?
The TGI was over 100 µM.

What about the TGI (EKVX NSCLC) of the same compound?
The TGI was over 100 µM.

What about the TGI (ACHN renal) of the same compound?
The TGI was over 100 µM.

And the TGI (SF-295 CNS)?
The TGI was over 100 µM.

And the TGI (RPMI-8226 leukemia)?
Its TGI is over 100 µM.

For CC1(C)C2CC1C(/C=N\OCC(=O)O)=CC2=O (stereo unspecified), which TGI (OVCAR-8 ovarian) is on record?
The TGI was over 100 µM.

What about the TGI (DU-145 prostate) of the same compound?
Its TGI is over 100 µM.

What about the TGI (RXF 393 renal) of the same compound?
Its TGI is over 100 µM.

What about the TGI (CAKI-1 renal) of the same compound?
The TGI was over 100 µM.

What about the TGI (SK-MEL-2 melanoma) of the same compound?
Its TGI is over 100 µM.

What about the TGI (SW-620 colon) of the same compound?
Its TGI is over 100 µM.

What about the TGI (PC-3 prostate) of the same compound?
The TGI was over 100 µM.

And the TGI (NCI-H226 lung)?
The TGI was over 100 µM.

And the TGI (OVCAR-5 ovarian)?
The TGI was over 100 µM.

What about the TGI (SK-MEL-5 melanoma) of the same compound?
The TGI was over 100 µM.

And the TGI (EKVX NSCLC)?
The TGI was over 100 µM.

What about the TGI (ACHN renal) of the same compound?
Its TGI is over 100 µM.

What about the TGI (SF-295 CNS) of the same compound?
Its TGI is over 100 µM.

And the TGI (RPMI-8226 leukemia)?
Its TGI is over 100 µM.

From PubChem BioAssay (NCI)
